Source: ChEMBL document CHEMBL1765021, “Assessing high affinity binding to HLA-DQ2.5 by a novel peptide library based approach” (Bioorg Med Chem, 2011)
Calls of active or inactive are those of the source. The calls are words filed in the database; no cut-off is given here. Peptide text beside a SMILES is read from it.

What was measured:
Homo sapiens [1] = species on record: Homo sapiens; test: Binding affinity to MHC class II HLA-DQ2.5 in Epstein-Barr virus-transformed human B lymphocyte
Homo sapiens [2] = species on record: Homo sapiens; test: Ratio of IC50 of peptide P198 for human MHC class II HLA-DQ2.5 to IC50 of peptide for human MHC class II HLA-DQ2.5

| SMILES | Activity (Homo sapiens [1]) | Ratio IC50 (Homo sapiens [2]) |
| --- | --- | --- |
| CC(C)C[C@H](NC(=O)[C@H](CCC(=O)O)NC(=O)[C@H](CCC(=O)O)NC(=O)[C@H](CCC(=O)O)NC(=O)[C@H](CCCCN)NC(=O)[C@H](CCC(=O)O)NC(=O)[C@H](C)NC(=O)[C@H](C)NC(=O)[C@@H](N)Cc1ccccc1)C(=O)N[C@@H](CCCNC(=N)N)C(=O)O (H-FAAEKEEELR-OH) | Active | 0.93 |
| CC(C)[C@H](NC(=O)[C@H](CCCCN)NC(=O)[C@H](CCC(=O)O)NC(=O)[C@H](C)NC(=O)[C@H](C)NC(=O)[C@@H](N)Cc1ccccc1)C(=O)N[C@@H](CCC(=O)O)C(=O)N[C@@H](CCC(=O)O)C(=O)N[C@@H](Cc1ccccc1)C(=O)N[C@@H](CCCNC(=N)N)C(=O)O (H-FAAEKVEEFR-OH) | Active | – |
| CC(C)C[C@H](NC(=O)[C@H](C)NC(=O)[C@H](C)NC(=O)[C@@H](N)Cc1ccccc1)C(=O)N[C@@H](CCCCN)C(=O)N[C@@H](CCC(=O)O)C(=O)N[C@@H](CCC(=O)O)C(=O)N[C@@H](CCC(=O)O)C(=O)N[C@@H](Cc1ccc(O)cc1)C(=O)N[C@@H](CCCNC(=N)N)C(=O)O (H-FAALKEEEYR-OH) | Active | – |
